Reference: US9636368B2, “Strain of Lactobacillus rhamnosus and its metabolites for use in inhibiting xanthine oxidase and treating gout” (Food Industry Research and Development Institute, priority 2014, dated 2017)

System: uric acid in the serum of the mice
Assay: Treatment of experimental uricemia: potassium oxonate-induced high serum uric acid in ICR mice
Format: in vivo
Settings: potassium oxonate (400 mg/kg) + allopurinol 10 mg/kg, fed via feeding tube, sacrificed after one hour, oxonate alone 4.91 ± 0.08, saline control 3.51 ± 0.02
Experimental: Lactobacillus rhamnosus I21 was inoculated on an MRS plate and cultured at 37° C. for 3 days. Bacteria were scraped from the plate using a 1 μl sterile inoculation loop, inoculated into MRS broth, and grown at 37° C. for 1 day to prepare an inoculum. The inoculum (30 ml) was then added into 3 L MRS broth in a 5 L fermenter and grown at 37° C. for 2 days. The fermentation broth was centrifuged at 3000 rpm for 15 min. The supernatant was collected and lyophilized to produce the Lactobacillus rhamnosus I21 fermentation product.
ICR mice were used as experimental animals. Potassium oxonate, a uricase inhibitor, was used to induce a high level of uric acid in the serum of the mice. Mice were fasted for one hour and then fed saline or potassium oxonate (400 mg/kg) via a feeding tube. After one hour, potassium oxonate-treated mice were fed saline, allopurinol (10 mg/kg), or a Lactobacillus rhamnosus I21 fermentation product (150 mg or 200 mg resuspended in saline per mouse) prepared as described above. Ten animals were used for each experimental group and for the control group. The animals were sacrificed after one hour and the level of uric acid in their serum was analyzed.

## Oc1ncnc2[nH]ncc12 [allopurinol]
  serum uric acid concentration: 2.82 ± 0.28 mg/dL
